Species on record: Rattus norvegicus
Assay: Open TG-GATES - Regimen: Single
Assay type: toxicity, organism-based, Sprague-Dawley
Parameters: regimen Single, gender Male, age 6 weeks
Conditions: in vivo, po, route gavage; for APTT / Bas / Eos / Fbg / Hb / Ht / Lym / MCH / MCHC / MCV / Mono / Neu / PT / Plat / RBC / Ret / WBC: tissue Blood; for KIDNEY_L / KIDNEY_R / KIDNEY_TOTAL: tissue Kidney; for LIVER: tissue Liver; for ALP / ALT / AST / CRE / DBIL / GLC / IP / K / LDH / Na / PL / RALB / TBIL / TC / TP / gamma-GTP: tissue Plasma
[1] = 0 mg/kg, 3 h, dose level Control
[2] = 0 mg/kg, 6 h, dose level Control
[3] = 0 mg/kg, 9 h, dose level Control
[4] = 0 mg/kg, 24 h, dose level Control
[5] = 100 mg/kg, 24 h, dose level Low

## Clc1ccccc1CN1CCc2sccc2C1 [TICLOPIDINE]
[1]
  TERMINAL_BW: 208.4 g
  APTT: 18.6 s
  Bas: 0%
  Eos: 1%
  Fbg: 221.2 mg/dL
  Hb: 13.2 g/dL
  Ht: 37.6%
  Lym: 73.2%
  MCH: 21.1 pg
  MCHC: 35%
  MCV: 60.3 fL
  Mono: 3%
  Neu: 21.8%
  PT: 11.9 s
  Plat: 123.5 x10_4/uL
  RBC: 623.4 x10_4/ul
  Ret: 7.9%
  WBC: 82.6 x10_2/uL
  KIDNEY_L: 0.9 g
  KIDNEY_R: 0.9 g
  KIDNEY_TOTAL: 1.9 g
  LIVER: 9.5 g
  ALP: 806 IU/L
  ALT: 37.4 IU/L
  AST: 69.2 IU/L
  CRE: 0.4 mg/dL
  DBIL: 0.07 mg/dL
  GLC: 204.6 mg/dL
  IP: 9.8 mg/dL
  K: 3.9 meq/L
  LDH: 129.2 IU/L
  Na: 141.2 meq/L
  PL: 142.4 mg/dL
  RALB: 3.3 g/dL
  TBIL: 0.1 mg/dL
  TC: 79.2 mg/dL
  TP: 5.4 g/dL
  gamma-GTP: 1.2 IU/L
[2]
  TERMINAL_BW: 208.2 g
  APTT: 18.7 s
  Bas: 0.2%
  Eos: 1%
  Fbg: 214.6 mg/dL
  Hb: 13.4 g/dL
  Ht: 38.1%
  Lym: 73%
  MCH: 21.3 pg
  MCHC: 35.2%
  MCV: 60.3 fL
  Mono: 3%
  Neu: 21.4%
  PT: 12 s
  Plat: 123.6 x10_4/uL
  RBC: 632.8 x10_4/ul
  Ret: 7.7%
  WBC: 93.2 x10_2/uL
  KIDNEY_L: 1 g
  KIDNEY_R: 0.9 g
  KIDNEY_TOTAL: 1.9 g
  LIVER: 9.1 g
  ALP: 821 IU/L
  ALT: 32.4 IU/L
  AST: 68 IU/L
  CRE: 0.4 mg/dL
  DBIL: 0.074 mg/dL
  GLC: 183.2 mg/dL
  IP: 9.3 mg/dL
  K: 3.9 meq/L
  LDH: 170.8 IU/L
  Na: 141.4 meq/L
  PL: 126.8 mg/dL
  RALB: 3.2 g/dL
  TBIL: 0.1 mg/dL
  TC: 70.8 mg/dL
  TP: 5.3 g/dL
  gamma-GTP: 1 IU/L
[3]
  TERMINAL_BW: 205.8 g
  APTT: 17.9 s
  Bas: 0%
  Eos: 1%
  Fbg: 222 mg/dL
  Hb: 13.3 g/dL
  Ht: 37.5%
  Lym: 78.2%
  MCH: 21.5 pg
  MCHC: 35.6%
  MCV: 60.5 fL
  Mono: 2%
  Neu: 17.8%
  PT: 12.3 s
  Plat: 131.6 x10_4/uL
  RBC: 620 x10_4/ul
  Ret: 7.6%
  WBC: 87.2 x10_2/uL
  KIDNEY_L: 0.9 g
  KIDNEY_R: 0.9 g
  KIDNEY_TOTAL: 1.8 g
  LIVER: 7.9 g
  ALP: 871.4 IU/L
  ALT: 33.4 IU/L
  AST: 65.6 IU/L
  CRE: 0.4 mg/dL
  DBIL: 0.072 mg/dL
  GLC: 193.8 mg/dL
  IP: 10 mg/dL
  K: 3.7 meq/L
  LDH: 128.4 IU/L
  Na: 141.8 meq/L
  PL: 130.8 mg/dL
  RALB: 3.3 g/dL
  TBIL: 0.1 mg/dL
  TC: 74 mg/dL
  TP: 5.4 g/dL
  gamma-GTP: 1 IU/L
[4]
  TERMINAL_BW: 221.4 g
  APTT: 20.8 s
  Bas: 0.8%
  Eos: 0.8%
  Fbg: 228.6 mg/dL
  Hb: 13.7 g/dL
  Ht: 38.7%
  Lym: 75%
  MCH: 21.5 pg
  MCHC: 35.4%
  MCV: 60.7 fL
  Mono: 3.6%
  Neu: 19.2%
  PT: 11.9 s
  Plat: 130.5 x10_4/uL
  RBC: 638 x10_4/ul
  Ret: 6.5%
  WBC: 110.6 x10_2/uL
  KIDNEY_L: 1 g
  KIDNEY_R: 1 g
  KIDNEY_TOTAL: 1.9 g
  LIVER: 10.1 g
  ALP: 880.2 IU/L
  ALT: 43.8 IU/L
  AST: 73.6 IU/L
  CRE: 0.4 mg/dL
  DBIL: 0.074 mg/dL
  GLC: 198.2 mg/dL
  IP: 8.5 mg/dL
  K: 3.7 meq/L
  LDH: 142.2 IU/L
  Na: 141.8 meq/L
  PL: 134.2 mg/dL
  RALB: 3.4 g/dL
  TBIL: 0.1 mg/dL
  TC: 70 mg/dL
  TP: 5.5 g/dL
  gamma-GTP: 1 IU/L
100 mg/kg, 3 h, dose level Low
  TERMINAL_BW: 210.7 g
  APTT: 19.6 s
  Bas: 0.2%
  Eos: 0.8%
  Fbg: 226.4 mg/dL
  Hb: 13.4 g/dL
  Ht: 38.3%
  Lym: 78.6%
  MCH: 21.4 pg
  MCHC: 35%
  MCV: 61.1 fL
  Mono: 2.8%
  Neu: 16.6%
  PT: 12.2 s
  Plat: 117.9 x10_4/uL
  RBC: 628 x10_4/ul
  Ret: 8.1%
  WBC: 70.6 x10_2/uL
  KIDNEY_L: 1 g
  KIDNEY_R: 1 g
  KIDNEY_TOTAL: 2 g
  LIVER: 9 g
  ALP: 1125 IU/L
  ALT: 35 IU/L
  AST: 71 IU/L
  CRE: 0.4 mg/dL
  DBIL: 0.076 mg/dL
  GLC: 200.6 mg/dL
  IP: 10.6 mg/dL
  K: 3.9 meq/L
  LDH: 155.4 IU/L
  Na: 141.4 meq/L
  PL: 132.2 mg/dL
  RALB: 3.3 g/dL
  TBIL: 0.1 mg/dL
  TC: 70.2 mg/dL
  TP: 5.5 g/dL
  gamma-GTP: 0.8 IU/L
100 mg/kg, 6 h, dose level Low
  TERMINAL_BW: 209.6 g
  APTT: 18.1 s
  Bas: 0.4%
  Eos: 1%
  Fbg: 231.6 mg/dL
  Hb: 13.4 g/dL
  Ht: 37.9%
  Lym: 76%
  MCH: 20.8 pg
  MCHC: 35.3%
  MCV: 58.9 fL
  Mono: 2.8%
  Neu: 19.2%
  PT: 12.3 s
  Plat: 130.4 x10_4/uL
  RBC: 643.6 x10_4/ul
  Ret: 7.9%
  WBC: 75.4 x10_2/uL
  KIDNEY_L: 0.9 g
  KIDNEY_R: 0.9 g
  KIDNEY_TOTAL: 1.8 g
  LIVER: 8.7 g
  ALP: 940.2 IU/L
  ALT: 31.6 IU/L
  AST: 68.4 IU/L
  CRE: 0.4 mg/dL
  DBIL: 0.08 mg/dL
  GLC: 189 mg/dL
  IP: 10.1 mg/dL
  K: 3.9 meq/L
  LDH: 212 IU/L
  Na: 141.4 meq/L
  PL: 137.2 mg/dL
  RALB: 3.4 g/dL
  TBIL: 0.1 mg/dL
  TC: 77.8 mg/dL
  TP: 5.5 g/dL
  gamma-GTP: 0.8 IU/L
100 mg/kg, 9 h, dose level Low
  TERMINAL_BW: 208 g
  APTT: 17.3 s
  Bas: 0.2%
  Eos: 0.6%
  Fbg: 226.6 mg/dL
  Hb: 13.3 g/dL
  Ht: 37.5%
  Lym: 74.6%
  MCH: 21.4 pg
  MCHC: 35.4%
  MCV: 60.5 fL
  Mono: 2.8%
  Neu: 20.6%
  PT: 12.7 s
  Plat: 123.9 x10_4/uL
  RBC: 621.6 x10_4/ul
  Ret: 7.5%
  WBC: 81 x10_2/uL
  KIDNEY_L: 0.9 g
  KIDNEY_R: 0.9 g
  KIDNEY_TOTAL: 1.9 g
  LIVER: 8.3 g
  ALP: 955 IU/L
  ALT: 29.6 IU/L
  AST: 69.8 IU/L
  CRE: 0.4 mg/dL
  DBIL: 0.082 mg/dL
  GLC: 199.8 mg/dL
  IP: 10 mg/dL
  K: 3.8 meq/L
  LDH: 151.2 IU/L
  Na: 142.6 meq/L
  PL: 141.6 mg/dL
  RALB: 3.4 g/dL
  TBIL: 0.1 mg/dL
  TC: 77.6 mg/dL
  TP: 5.4 g/dL
  gamma-GTP: 1.4 IU/L
[5]
  TERMINAL_BW: 219.8 g
  APTT: 21.2 s
  Bas: 1%
  Eos: 1%
  Fbg: 222 mg/dL
  Hb: 13.6 g/dL
  Ht: 38.3%
  Lym: 77.8%
  MCH: 21.7 pg
  MCHC: 35.5%
  MCV: 61.3 fL
  Mono: 2.8%
  Neu: 16.8%
  PT: 12 s
  Plat: 124.9 x10_4/uL
  RBC: 624.4 x10_4/ul
  Ret: 6.3%
  WBC: 116 x10_2/uL
  KIDNEY_L: 1 g
  KIDNEY_R: 1 g
  KIDNEY_TOTAL: 2 g
  LIVER: 10.1 g
  ALP: 1052.4 IU/L
  ALT: 37.8 IU/L
  AST: 70.2 IU/L
  CRE: 0.4 mg/dL
  DBIL: 0.072 mg/dL
  GLC: 188.6 mg/dL
  IP: 8.1 mg/dL
  K: 4.1 meq/L
  LDH: 141.4 IU/L
  Na: 141.6 meq/L
  PL: 136.4 mg/dL
  RALB: 3.4 g/dL
  TBIL: 0.1 mg/dL
  TC: 72.2 mg/dL
  TP: 5.5 g/dL
  gamma-GTP: 1 IU/L

Reference: ChEMBL document CHEMBL3885861, “Open TG-GATES”
